Columns and labels:
[1] = test system: prostate cancer cells PC3; test: TUNEL staining after Ad-REIC plus HSP70 inhibitor or inducer; format: cell-based, human; details: Ad-REIC 20 MOI, agent 250 mM added 24 hours later, TUNEL 48 hours later
Procedure: Normal cells OUMS 24 (human immortalized fibroblast) and prostate cancer cells PC3 were used for comparison. The cells were infected with Ad-REIC at 20 MOI. 24 hours later, an HSP70 inhibitor (heat shock protein inhibitor I, CALBIOCHEM, BIOCHEMICALS) and an HSP70 inducer (Geranyl-Geranyl Acetone) (250 mM each) were separately added to a culture solution. 48 hours later, TUNEL staining was performed to determine influence upon apoptosis. FIGS. 12 and 13 show staining images for OUMS24 and of PC3, respectively. In FIGS. 12 and 13, images on the left side indicate TUNEL-staining results and images on the right side indicate DAPI-staining results. […] That is, apoptosis was induced in normal cells with the use of the HSP70 inhibitor in combination. On the other hand, apoptosis expression was inhibited in cancer cells with the use of the HSP70 inducer in combination. Further, apoptosis induction was promoted with the use of the HSP70 inhibitor in combination.

[2] = test system: Normal cells OUMS 24 (human immortalized fibroblast); test: as above; format: cell-based; details: OUMS24; Ad-REIC 20 MOI; agent 250 mM added 24 hours later; TUNEL 48 hours later

O=CN1CC/C(=C\c2ccc3c(c2)OCO3)C1=O [HSP70 inhibitor]
TUNEL-positive cells with combined use with Ad-REIC, versus Ad-REIC alone [1]: greater than that obtained with the use of Ad-REIC alone
TUNEL-positive cells with combined use with Ad-REIC [2]: a large number of TUNEL-positive cells

Source: patent publication US8658611B2, “Apoptosis-inducing agent for prostate cancer cells” (priority 2005, dated 2014)
